Where two headings read alike, the source gives them in different places.
Target: T1, EC-LigA (Escherichia coli DNA ligase LigA) (Escherichia coli, UniProt P15042)
T1 construct: purchased NEB
Test: in vitro ligase assay (nicked DNA substrate, denaturing PAGE)
Assay type: biochemical
Details: for inhibition of EC-LigA (result in words): concentrations up to 3333 µM; for extent of inhibition reached (complete or partial): highest concentration tested 3333 µM; for extent of ligation in the presence of small molecule: at all small molecule concentrations tested (up to 3333 µM), about 50% ligation without small molecule
Experimental: A 50 bp nicked DNA substrate was designed and prepared by annealing a 5′ hexachlorofluorescein (HEX) labelled, 3′ hydroxyl 20 nt single stranded oligonucleotide (20Top) and an unlabelled, 5′ phosphate 30 nt single stranded oligonucleotide (30Top) to a complementary unlabelled 50 nt single stranded oligonucleotide (50Bot) (Figure 4A). Incubation of this nicked DNA substrate with EC-LigA in the presence of NAD^+ cofactor should lead to phosphodiester bond formation between the 3′ hydroxyl of 20Top and the 5′ phosphate of 30Top to produce a 50 bp double stranded DNA product. The ligation reaction can be evaluated by resolving the 50 nt 5′ HEX labelled single stranded DNA and the 20 nt 5′ HEX labelled 20Top single stranded DNA by denaturing polyacrylamide gel electrophoresis (PAGE). The inhibitory activity of small molecules on EC-LigA activity can then be assessed by comparing the extent of ligation (the percentage of 50 nt 5′ HEX labelled single stranded DNA produced) in the absence of small molecule to the extent of ligation in the presence of small molecule. Small molecule inhibitors of EC-LigA will reduce the percentage of 50 nt 5′ HEX labelled single stranded DNA produced.
Figure 4 In vitro screening of candidate EC-LigA small molecule inhibitors. (A) A schematic of the in vitro ligation assay. A 50 bp nicked DNA substrate was prepared by annealing a 5′ hexachlorofluorescein (HEX) labelled, 3′ hydroxyl 20 nt single stranded oligonucleotide (20Top, blue) and an unlabelled, 5′ phosphate 30 nt single stranded oligonucleotide (30Top) to a complementary unlabelled 50 nt single stranded oligonucleotide (50Bot). Subsequent ligation of 20Top and 30Top, by EC-LigA produced a 50 bp double stranded DNA product comprising 5′ HEX labelled 50 nt DNA (50Top, green) and the complementary unlabelled 50 nt DNA 50Bot. (B) Representative 10% (w/v) denaturing PAGE of in vitro ligase assays performed with 120 nM nicked DNA substrate, 30 nM EC-LigA and 26 µM NAD^+ in reaction buffer (30 mM Tris HCl, pH 8.0, 4 mM MgCl2, 1 mM DTT, and 50 µg/mL BSA) in the presence of increasing concentrations of geneticin (0–3333 µM) or chlorhexidine (0–3333 µM) at room temperature for 5 min. Blue and green triangles mark the HEX labelled 20Top (substrate) and 50Top (product) DNA species, respectively. Gels were quantitated using ImageJ and the mean percentage 50Top DNA product was plotted against small molecule concentration. Error bars represent the standard error of the mean for a minimum of two experimental repeats. […] (D) As for (B) but for increasing concentrations of 5-azacytidine (0–3333 µM) or imidazo[1,2-a]pyridine-7-C (0–3333 µM). (E) As for (B) but for increasing concentrations of bestatin (0–3333 µM) or 2-(aminomethyl)imidazole (0–3333 µM).
Quenched reactions were heat-denatured at 100°C for 3 min and placed on ice. Reaction products were resolved by 10% (w/v) denaturing PAGE (10% (w/v) polyacrylamide gels containing 20% formamide and 7 M urea). Inclusion of formamide in the polyacrylamide gels aided maintenance of single-stranded species during electrophoresis. Gels were visualised using a fluorescence-imager (Fuji FLA-5000) using an excitation wavelength of 532 nm. Digitised images were quantitated using ImageJ software (NIH) and the percentage of 20Top (substrate) and 50Top (product) in each lane was calculated. Data were fit to a three-parameter IC50 inhibition function: y=Ymax/1+(x/IC50)^n
In this equation, y is the percentage of 50Top (product) at small molecule inhibitor concentration x; Ymax is the theoretical maximal percentage of 50Top (product) that can be formed, IC50 is the concentration of small molecule inhibitor at half Ymax, and n is the Hill slope factor.

[1] = 120 nM nicked DNA, 30 nM EC-LigA, 26 µM NAD+, room temperature, 5 min, three-parameter fit, read-out: IC50

T1 sequence (P15042 whole entry): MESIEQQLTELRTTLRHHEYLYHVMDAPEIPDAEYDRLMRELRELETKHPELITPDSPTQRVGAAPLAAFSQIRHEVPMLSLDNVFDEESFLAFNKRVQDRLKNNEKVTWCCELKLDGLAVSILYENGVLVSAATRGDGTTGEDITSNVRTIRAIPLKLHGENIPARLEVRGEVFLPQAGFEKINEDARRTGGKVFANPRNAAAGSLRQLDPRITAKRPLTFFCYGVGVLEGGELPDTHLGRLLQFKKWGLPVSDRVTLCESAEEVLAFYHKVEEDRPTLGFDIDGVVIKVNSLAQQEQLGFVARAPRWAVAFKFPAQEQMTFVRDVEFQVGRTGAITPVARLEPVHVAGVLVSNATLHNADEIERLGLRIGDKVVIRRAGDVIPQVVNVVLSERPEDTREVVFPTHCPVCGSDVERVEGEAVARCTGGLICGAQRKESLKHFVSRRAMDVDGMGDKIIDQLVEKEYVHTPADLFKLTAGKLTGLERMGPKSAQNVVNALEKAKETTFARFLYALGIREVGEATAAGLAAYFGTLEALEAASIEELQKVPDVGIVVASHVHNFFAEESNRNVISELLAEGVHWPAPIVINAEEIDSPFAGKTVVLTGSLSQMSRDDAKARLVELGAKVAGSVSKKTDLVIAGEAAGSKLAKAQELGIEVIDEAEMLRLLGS

Q: `O=C(NCNC(=O)NC1C(=O)NC(=O)N1CO)NC1C(=O)NC(=O)N1CO` (centres unmarked) [Imidazolidinyl urea, imidazolidinyl urea] was tested. Which IC50 [1] did it give?
A: The IC50 was 38.5 µM.

Q: What about the “inhibition of EC-LigA (result in words)” value of the same molecule?
A: The value was “inhibited the ligation reaction in a dose-dependent manner”.

Q: And the “extent of inhibition reached (complete or partial)” value (shortened to “extent of inhibition reached”)?
A: Its value is “Complete inhibition of ligation was observed”.

Q: How did the IC50 (IC50, 120 nM nicked DNA, 30 nM EC-LigA, 26 µM NAD+, room temperature, 5 min, three-parameter fit) turn out when `N[C@@H](CCC(=O)N[C@@H](CS)C(=O)NCC(=O)O)C(=O)O` [Glutathione, glutathione] was run?
A: Its IC50 is 1523 ± 10.1 µM.

Q: What about the IC50 (IC50, as stated in the text, apparent IC50) of the same molecule?
A: Its IC50 is 1520 µM.

Q: What about the “inhibition of EC-LigA (result in words)” value of the same molecule?
A: Its value is “inhibited the ligation reaction in a dose-dependent manner”.

Q: And the “extent of inhibition reached” value?
A: Its value is “Complete inhibition of ligation was observed”.

Q: For `CN[C@@H]1[C@@H](O)[C@@H](O[C@@H]2[C@@H](O)[C@H](O[C@H]3O[C@H]([C@@H](C)O)[C@@H](O)[C@H](O)[C@H]3N)[C@@H](N)C[C@H]2N)OC[C@]1(C)O` [Geneticin, geneticin, reference compound], which IC50 [1] is on record?
A: The IC50 was 2600 ± 85.4 µM.

Q: What about the “inhibition of EC-LigA (result in words)” value of the same molecule?
A: The value was “inhibited the ligation reaction in a dose-dependent manner”.

Q: And the “extent of inhibition reached” value?
A: The value was “Complete inhibition of ligation was observed”.

Q: `O=C(O)c1ccn2ccnc2c1` [imidazo[1,2-a]pyridine-7-C, imidazo[1,2-a]pyridine-7-carboxylic acid] was tested. Which “extent of ligation in the presence of small molecule” value (from here on “extent of ligation”) did it give?
A: Its value is “approximately 50%”.

Q: And the “inhibition of EC-LigA (result in words)” value?
A: The value was “do not inhibit EC-LigA”.

Q: Which results are given for `[H]/N=C(\N/C(=N/[H])NCCCCCCNC(=N)NC(=N)Nc1ccc(Cl)cc1)Nc1ccc(Cl)cc1` [Chlorhexidine, chlorhexidine, reference compound]?
A: IC50 [1]: 11 µM; inhibition of EC-LigA (result in words): inhibited the ligation reaction in a dose-dependent manner; extent of inhibition reached (complete or partial): Complete inhibition of ligation was observed

Q: With `CC(C)C[C@H](NC(=O)[C@@H](O)[C@H](N)Cc1ccccc1)C(=O)O` [bestatin, reference compound] as the molecule, how does the “extent of ligation” value read?
A: Its value is “approximately 50%”.

Q: What about the “inhibition of EC-LigA (result in words)” value of the same molecule?
A: The value was “do not inhibit EC-LigA”.

Q: What does the source list for `NCc1ncc[nH]1` [2-(aminomethyl)imidazole]?
A: IC50 [1]: 872 ± 248 µM; IC50 (apparent IC50, read-out: IC50): 870 µM; inhibition of EC-LigA (result in words): inhibited the ligation reaction in a dose-dependent manner; extent of inhibition reached (complete or partial): inhibition was only partial

Q: Which “extent of ligation” value does the source give for `Nc1ncn([C@@H]2O[C@H](CO)[C@@H](O)[C@H]2O)c(=O)n1` [5-azacytidine, reference compound] here?
A: Its value is “approximately 50%”.

Q: What about the “inhibition of EC-LigA (result in words)” value of the same molecule?
A: Its value is “do not inhibit EC-LigA”.

Source: paper PMC8123306, “Identification of Novel Inhibitors of Escherichia coli DNA Ligase (LigA)” (Molecules, 2021)
